In patent US6360743B1, “System for dispensing pharmaceutical active compounds” (AB Astra, priority 1992, dated 2002):

How the values were obtained:
[1] = Absolute systemic availability and lung deposition of inhaled budesonide (plasma LC-MS); type: in vivo, healthy subjects; conditions: for Cmax / Tmax: human, plasma, inhaled or intranasal, 1 mg, 1 mg inhaled; for absolute systemic availability (geometric mean): 1 mg as five inhalations of 200 micrograms, vs 0.5 mg intravenously; for amount deposited and absorbed in the lung (geometric mean, range): calculated assuming 13% availability of swallowed budesonide
Protocol: In order to determine the absolute systemic availability and the amount of budesonide deposited and absorbed in the lung after inhalation via TURBUHALER and via an MDI, 24 healthy subjects were given budesonide 1 mg as five inhalations of 200 micrograms each, via TURBUHALER inhaler or via MDI, and 0.5 mg intravenously, on separate study days. Budesonide levels were determined in plasma by a LC-MS method. The amount of budesonide absorbed in the lung was calculated on the assumption of an availability of swallowed budesonide of 13%. Furthermore, absorption in the lung was calculated in 13 of the subjects after inhalation with concomitant oral dosing of charcoal to prevent absorption of budesonide from the gastrointestinal track. There was good conformity between the two modes of calculation.

[2] = generally regarded; cited from earlier work

SMILES | lung deposition from TURBUHALER relative to MDI ([1]; TURBUHALER versus MDI) | Cmax ([1]; via MDI) [nM] | Tmax ([1]; via MDI) [min] | Cmax ([1]; via TURBUHALER) [nM] | Tmax ([1]; via TURBUHALER) [min] | absolute systemic availability (geometric mean) ([1]; via MDI) [%] | amount deposited and absorbed in the lung (geometric mean, range) ([1]; via MDI) | absolute systemic availability (geometric mean) ([1]; via TURBUHALER) [%] | amount deposited and absorbed in the lung (geometric mean, range) ([1]; via TURBUHALER) | dose regarded as equipotent to 0.25 mg of terbutaline sulphate [2] [mg]
CCCC1O[C@@H]2C[C@H]3[C@@H]4CCC5=CC(=O)C=C[C@]5(C)[C@H]4[C@@H](O)C[C@]3(C)[C@]2(C(=O)CO)O1 (stereo partly shown) [budesonide] | twice that from an MDI | 2.3 | 30 | 3.6 | 18 | 28 | 15% (3%-47%) | 38 | 32% (16%-59%) | 
CC(C)(C)NCC(O)c1ccc(O)c(CO)c1 (stereo not shown) [salbutamol] |  |  |  |  |  |  |  |  |  | 0.1
